In patent publication US20230137956A1, “ALPHA SUBSTITUTED STAT INHIBITORS AND COMPOSITIONS THEREOF” (JANPIX LIMITED, priority 2020, published 2023) one finds IC50 and half-life data, which are given here for 8 molecules.

Read-outs that look alike come from different tables or passages of the source.

One series has as its system MV4-11 cells. Briefly: MV4-11 Cell Cytotoxicity Assay. As to conditions: 72 h incubation, CellTiter-Blue, read-out: IC50-MV-4-11. In kind it is cell-based, human. Here is the method:
In some embodiments, the potency of the STAT5 inhibitors are evaluated by an in vitro assay such as MV4-11 Cell Cytotoxicity Assay. MV4-11 cells were grown in Iscove's Modified Dulbecco's Medium (IMDM) supplemented with 10% fetal bovine serum (FBS). 10,000 cells were plated per well in 96-well flat-bottom sterile culture plates with low-evaporation lids. After 24 h, inhibitors and a vehicle control (0.5% DMSO) were added and the cells were incubated for 72 h at 37° C. in 5% CO2. Inhibitors were examined in triplicate at a maximal concentration of 50 μM, followed by 1:2 dilutions in subsequent wells (25, 12.5, 6.25, 3.125, 1.5625, 0.78125, 0.390625, 0.195313 and 0.097656 μM). After 72 h, the wells were treated with CellTiter-Blue® (20 μL/well), and the plates were incubated using standard cell culture conditions for 1 hour. Fluorescence was measured at 560/590 nm.
Background: Alamar Blue is a resazurin reagent that responds to reducing activity.

For a further series, the system named is glutathione (GSH). Briefly: Reactivity Profiling with Glutathione (GSH). Particulars: cell culture medium (IMDM, 10% FBS) with 5 mM glutathione, 25 μM inhibitor, IMDM with 10% FBS, 0.5% DMSO, 25° C., HPLC, read-out: T1/2-GSH. It counts as in vitro ADME. The procedure: In some embodiments, metabolic stability of the compounds is evaluated according to their reactivity profiles with GSH.
3.5 μL of 5 mM stocking solution of the inhibitors in DMSO was added to 697.5 μL of Iscove's Modified Dulbecco's Medium (IMDM) supplemented with 10% FBS and antibiotic antimycotic solution, with 5 mM glutathione to afford a final concentration of 25 μM inhibitor with 0.5% DMSO. The solution was then immediately placed in the sample tray at 25° C. Sample was analyzed at pre-defined intervals, typically every 1.5 hours, for up to four injections, by HPLC, included at time zero, without further pre-treatment. For each inhibitor, its peak is integrated at different time points and compared to the time zero injection in order to obtain a percentage remaining. Half-life is calculated according to a first order reaction kinetic taking into account those time points for which remaining percentage of inhibitor is above 40%, using the formula: t½=Ln(2)/k, where k is the slope of the linear plot of Ln[Inhibitor] vs time, according to the formula: Ln[A]=Ln[A]0−kt, where [A] is the value resulting from the integration at each time point, [A]0 the value at time zero, and t the time. For each inhibitor, both replicates are averaged and the resulting t½ reported. Selective reactivity against GSH in particular is confirmed by incubation of the inhibitor in the same solution without the presence of GSH, and single analysis after a time longer than the latest time point analyzed for the samples with GSH.

As to `C[C@H](C(=O)N(Cc1cc(C2CC2)cc(C(C)(C)C)c1)c1ccc(C(=O)O)c(O)c1)N(Cc1ccc(Cl)cc1)S(=O)(=O)c1c(F)c(F)c(F)c(F)c1F` [Compound 1004, (R)-4-(N-(3-(tert-butyl)-5-cyclopropylbenzyl)-2-(N-(4-chlorobenzyl)-(2,3,4,5,6-pentafluorophenyl)sulfonamido)propanamido)-2-hydroxybenzoic acid], the IC50 with MV4-11 cells (Homo sapiens, MV4-11, 72 h) is 5 to 10 µM.

`C[C@@H](C(=O)N(Cc1cc(C2CC2)cc(C2CC2)c1)c1ccc(C(=O)O)cc1OC1CC1)N(Cc1ccc(F)cc1Cl)S(=O)(=O)c1c(F)c(F)c(F)c(F)c1F` [Compound 1006, (S)-4-(2-(N-(2-chloro-4-fluorobenzyl)-(2,3,4,5,6-pentafluorophenyl)sulfonamido)-N-(3,5-dicyclopropylbenzyl)propanamido)-3-cyclopropoxybenzoic acid]: the half-life at 25 μM in the series with glutathione (GSH) lay in the range of 142 to 554 min.

For `CC(C)[C@@H](C(=O)N(Cc1cc(C2CC2)cc(C(C)(C)C)c1)c1ccc(C(=O)O)c(O)c1)N(Cc1ccc(Cl)cc1)S(=O)(=O)c1c(F)c(F)c(F)c(F)c1F` [Compound 1003, (S)-4-(N-(3-(tert-butyl)-5-cyclopropylbenzyl)-2-(N-(4-chlorobenzyl)-(2,3,4,5,6-pentafluorophenyl)sulfonamido)-3-methylbutanamido)-2-hydroxybenzoic acid], the IC50 with MV4-11 cells (Homo sapiens, MV4-11, 72 h) was in the range of 1e-05 to 5 µM.

With `C[C@@H](C(=O)N(Cc1cc(C2CC2)cc(N2CCCC2)c1)c1ccc(C(=O)O)cc1C1CC1)N(Cc1ccc(F)cc1Cl)S(=O)(=O)c1c(F)c(F)c(F)c(F)c1F` [Compound 1008, (S)-4-(2-(N-(2-chloro-4-fluorobenzyl)-(2,3,4,5,6-pentafluorophenyl)sulfonamido)-N-(3-cyclopropyl-5-(pyrrolidin-1-yl)benzyl)propan-amido)-3-cyclopropylbenzoic acid], in the series on glutathione (GSH), the half-life at 25 μM lay within 142 to 554 min.

With `CC(C)C[C@H](C(=O)N(Cc1cc(C2CC2)cc(C(C)(C)C)c1)c1ccc(C(=O)O)c(O)c1)N(Cc1ccc(Cl)cc1)S(=O)(=O)c1c(F)c(F)c(F)c(F)c1F` [Compound 1001, (R)-4-(N-(3-(tert-butyl)-5-cyclopropylbenzyl)-2-(N-(4-chlorobenzyl)-(2,3,4,5,6-pentafluorophenyl)sulfonamido)-4-methylpentanamido)-2-hydroxybenzoic acid], the IC50 with MV4-11 cells lay in the range of 1e-05 to 5 µM.

For the molecule `C[C@H](C(=O)N(Cc1cc(C2CC2)cc(N2CCCC2)c1)c1ccc(C(=O)O)cc1C1CC1)N(Cc1ccc(F)cc1Cl)S(=O)(=O)c1c(F)c(F)c(F)c(F)c1F` [Compound 1009, (R)-4-(2-(N-(2-chloro-4-fluorobenzyl)-(2,3,4,5,6-pentafluorophenyl)sulfonamido)-N-(3-cyclopropyl-5-(pyrrolidin-l-yl)benzyl)propan-amido)-3-cyclopropylbenzoic acid], the half-life at 25 μM with glutathione (GSH) was 554 to 100000 min.

As to `CC(C)C[C@H](C(=O)N(Cc1cc(C2CC2)cc(C(C)(C)C)c1)c1ccc(C(=O)O)c(O)c1)N(Cc1ccc(Cl)cc1)S(=O)(=O)c1c(F)c(F)c(F)c(F)c1F` [Compound 1005, (R)-4-(N-(3-(tert-butyl)-5-cyclopropylbenzyl)-2-(N-(4-chlorobenzyl)-(2,3,4,5,6-pentafluorophenyl)sulfonamido)-4-methylpentanamido)-2-hydroxybenzoic acid], the concentration for half-maximal inhibition (IC50) with MV4-11 cells lay within 5 to 10 µM.

As to `C[C@@H](C(=O)N(Cc1cc(C2CC2)cc(C(C)(C)C)c1)c1ccc(C(=O)O)c(O)c1)N(Cc1ccc(Cl)cc1)S(=O)(=O)c1c(F)c(F)c(F)c(F)c1F` [Compound 1002, (S)-4-(N-(3-(tert-butyl)-5-cyclopropylbenzyl)-2-(N-(4-chlorobenzyl)-(2,3,4,5,6-pentafluorophenyl)sulfonamido)propanamido)-2-hydroxybenzoic acid], the IC50 in the series with MV4-11 cells (Homo sapiens, MV4-11, 72 h) is 1e-05 to 5 µM.

Broadly, the IC50 is the concentration that gives 50% inhibition.
